Counter-ions that a name gives are not always drawn.
These compounds were tested against BTK (Homo sapiens (Human), UniProt Q06187) (assay: In Vitro BTK Kinase Assay: Btk-PolyGAT-LS Assay). Settings: active BTK enzyme 0.25 nM, ATP 10 μM, polyGAT 100 nM, 30 minutes.
Type: biochemical
Experimental: In Vitro BTK Kinase Assay: Btk-PolyGAT-LS Assay
The purpose of the BTK in vitro assay is to determine compound potency against BTK through the measurement of IC50. […] The BTK kinase reaction was done in a black 96 well plate (costar 3694). For a typical assay, a […] aliquot of a ATP/peptide master mix (final concentration; ATP 10 μM, polyGAT 100 nM) in kinase buffer (10 mM Tris-HCl pH 7.5, 10 mM MgCl2, 200 μM […], 5 mM DTT, 0.01% Triton X-100, and 0.2 mg/ml casein) is added to each well. Next, […] of a 4-fold, 40× compound titration in 100% DMSO solvent is added, followed by adding 15 uL of BTK enzyme mix in 1× kinase buffer (with a final concentration of 0.25 nM). The assay is incubated for 30 minutes before being stopped with […] of a 50 mM EDTA solution. Aliquots (5 uL) of the kinase reaction are transferred to a low volume white 384 well plate (Corning 3674), and […] of a 2× detection buffer (Invitrogen PV3574, with 4 nM Tb-PY20 antibody, Invitrogen PV3552) is added. The plate is covered and incubated for 45 minutes at room temperature. Time resolved fluorescence (TRF) on Molecular Devices M5 (332 nm excitation; 488 nm emission; 518 nm fluorescein emission) is measured.

Chain of BTK (Q06187 whole entry): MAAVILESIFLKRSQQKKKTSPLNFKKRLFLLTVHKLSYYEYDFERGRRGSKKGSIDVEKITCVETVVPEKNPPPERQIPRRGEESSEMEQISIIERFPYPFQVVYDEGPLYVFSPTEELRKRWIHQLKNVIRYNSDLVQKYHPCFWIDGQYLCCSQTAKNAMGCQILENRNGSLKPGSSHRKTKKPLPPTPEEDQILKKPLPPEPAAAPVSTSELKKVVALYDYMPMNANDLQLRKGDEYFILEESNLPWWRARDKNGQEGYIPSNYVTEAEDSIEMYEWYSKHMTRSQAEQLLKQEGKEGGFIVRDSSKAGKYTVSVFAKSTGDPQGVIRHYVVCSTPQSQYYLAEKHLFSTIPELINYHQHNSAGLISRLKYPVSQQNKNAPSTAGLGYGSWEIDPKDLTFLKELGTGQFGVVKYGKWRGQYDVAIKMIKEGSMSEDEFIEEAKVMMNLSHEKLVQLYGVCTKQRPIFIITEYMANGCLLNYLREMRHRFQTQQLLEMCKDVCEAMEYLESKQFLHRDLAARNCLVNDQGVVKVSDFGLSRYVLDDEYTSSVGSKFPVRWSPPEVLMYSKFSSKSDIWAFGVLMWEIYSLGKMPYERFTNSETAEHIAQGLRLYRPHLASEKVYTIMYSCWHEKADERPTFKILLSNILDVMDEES

Row | Structure (SMILES) | IC50 [nM]
1 | Cc1cc(-c2ncnn3cc(-c4cnn(C)c4)cc23)ccc1CNC(=O)c1cn(C(C)(C)C)nn1 [Example 166] | ≤ 1
2 | Cc1cc(-c2ncnn3cc(N4CCO[C@@H](C)C4)cc23)ccc1CNC(=O)c1coc(C(C)(C)C)n1 (single isomer, unassigned) [Example 144] | ≤ 1
3 | CC(C)(C)c1noc(C(=O)NCc2ccc(-c3ncnn4cc(N5CCOCC5)cc34)cc2CC(F)F)n1 [Example 65, 3-(tert-butyl)-N-(2-(2,2-difluoroethyl)-4-(6-morpholinopyrrolo[2,1-f][1,2,4]triazin-4-yl)benzyl)-1,2,4-oxadiazole-5-carboxamide hydrochloride] | ≤ 1
4 | Cc1cc(-c2ncnn3cc(N4CCN(C)[C@H](C)C4)cc23)ccc1CNC(=O)c1nc(C(C)(C)C)no1 (single isomer, unassigned) [Example 27] | ≤ 1
5 | CC(C)(C)c1nnc(C(=O)NCc2ccc(-c3ncnn4cc(C5=CCOCC5)cc34)cc2C(F)F)o1 [Example 213] | 1 to 10
6 | Cc1cc(-c2ncnn3cc(C(=O)N(C)C)cc23)ccc1CNC(=O)c1noc(C(C)(C)C)n1 [Example 67, 5-(tert-butyl)-N-(4-(6-(dimethylcarbamoyl)pyrrolo[2,1-f][1,2,4]triazin-4-yl)-2-methylbenzyl)-1,2,4-oxadiazole-3-carboxamide hydrochloride] | ≤ 1
7 | Cc1cc(-c2ncnn3cccc23)ccc1CNC(=O)c1cn(C(C)(C)C)nn1 [Example 184] | > 10
8 | Cc1cc(-c2ncnn3cc(N4CCOCC4C)cc23)ccc1CNC(=O)c1noc(C(C)(C)C)n1 (centres unmarked) [Example 229] | 1 to 10
9 | Cc1cc(-c2ncnn3cc(-c4ccc(F)cc4)cc23)ccc1CNC(=O)c1noc(C(C)(C)C)n1 [Example 224] | ≤ 1
10 | Cc1cc(-c2ncnn3cc(N4CCN(C)C(=O)C4)cc23)ccc1CNC(=O)c1noc(C(C)(C)C)n1 [Example 177] | ≤ 1
11 | CC(C)(C)n1ccc(C(=O)NCc2ccc(-c3ncnn4cc(N5CCOCC5)cc34)c(F)c2Cl)n1 [Example 158] | 1 to 10
12 | Cc1cc(-c2ncnn3cc(-c4cnn(C)c4C)cc23)ccc1CNC(=O)c1cnc(C(C)(C)C)o1 [Example 131] | 1 to 10
13 | Cc1cc(-c2ncnn3cc(N4CCN(C)C[C@H]4C)cc23)ccc1CNC(=O)c1noc(C(C)(C)C)n1 [Example 92] | 1 to 10
14 | Cc1cc(-c2ccnc3ccnn23)ccc1CNC(=O)c1noc(C(C)(C)C)n1 [Example 50] | 1 to 10
15 | Cc1cc(-c2ncnn3cc(-c4cnn(CC(F)F)c4)cc23)ccc1CNC(=O)c1nnn(C(C)(C)C)n1 [Example 146] | ≤ 1
16 | CC(C)(C)c1nc(C(=O)NCc2ccc(-c3ncnn4cc(N5CCOCC5)cc34)c(F)c2CC(F)F)no1 [Example 234] | 1 to 10
17 | Cc1cc(-c2ncnn3cc(N4CCO[C@@H](C)C4)cc23)ccc1CNC(=O)c1nc(C(C)(C)C)no1 (single isomer, unassigned) [Example 138] | ≤ 1
18 | CC(C)(C)n1cc(C(=O)NCc2ccc(-c3ncnn4cc(N5CCOCC5)cc34)c(F)c2C2CC2)nn1 [Example 164] | 1 to 10
19 | COC1CN(C(=O)c2cc3c(-c4ccc(CNC(=O)c5noc(C(C)(C)C)n5)c(C)c4)ncnn3c2)C1 [Example 217] | ≤ 1

Row | Structure (SMILES) | IC50 [nM]
20 | Cc1c(CNC(=O)c2cnn(C(C)(C)C)c2)ccc(-c2ncnn3cc(N4CCOCC4)cc23)c1F [Example 88] | ≤ 1
21 | Cc1cc2c(-c3ccc(CNC(=O)c4noc(C(C)(C)C)n4)c(C)c3)ncnn2c1 [Example 55] | ≤ 1
22 | Cc1cc(-c2ncnn3cccc23)ccc1CNC(=O)c1ccn(C(C)(C)C)n1 [Example 182] | > 10
23 | Cc1cc(-c2ncnn3cc(CC4CCOCC4)cc23)ccc1CNC(=O)c1noc(C(C)(C)C)n1 [Example 94] | > 10
24 | Cc1cc(-c2ncnn3cc(N4CCO[C@@H](C)C4)cc23)ccc1CNC(=O)c1nnn(C(C)(C)C)n1 (single isomer, unassigned) [Example 140] | 1 to 10
25 | Cc1cc(-c2ncnn3cc(C4=CCOCC4)cc23)ccc1CNC(=O)c1nnn(C(C)(C)C)n1 [Example 128] | ≤ 1
26 | Cc1cc(-c2ncnn3cc(-c4ncccn4)cc23)ccc1CNC(=O)c1noc(C(C)(C)C)n1 [Example 68, 5-(tert-butyl)-N-(2-methyl-4-(6-(pyrimidin-2-yl)pyrrolo[2,1-f][1,2,4]triazin-4-yl)benzyl)-1,2,4-oxadiazole-3-carboxamide hydrochloride] | ≤ 1
27 | Cc1cc(-c2ncnn3cccc23)ccc1CNC(=O)c1nc(C(C)(C)C)no1 [Example 152] | 1 to 10
28 | CC(C)(C)c1nc(C(=O)NCc2ccc(-c3ncnn4cccc34)cc2C(F)(F)F)no1 [Example 179] | 1 to 10
29 | Cc1cc(-c2ncnn3ccc(C)c23)ccc1CNC(=O)c1noc(C(C)(C)C)n1 [Example 49] | 1 to 10
30 | CC(C)(C)n1cc(C(=O)NCc2ccc(-c3ncnn4cc(N5CCOCC5)cc34)c(F)c2Cl)nn1 [Example 157] | ≤ 1
31 | Cn1cc(-c2cc3c(-c4ccc(CNC(=O)c5noc(C(C)(C)C)n5)c(C(F)F)c4)ncnn3c2)cn1 [Example 219] | ≤ 1
32 | COc1c(CNC(=O)c2noc(C(C)(C)C)n2)ccc(-c2ncnn3cc(-c4cnn(C)c4)cc23)c1F [Example 235] | ≤ 1
33 | Cc1cc(-c2ncnn3cc(-c4cnn(C)c4)cc23)ccc1CNC(=O)c1noc(C(C)(C)C)n1 [Example 80, 5-(tert-butyl)-N-(2-methyl-4-(6-(1-methyl-1H-pyrazol-4-yl)pyrrolo[2,1-f][1,2,4]triazin-4-yl)benzyl)-1,2,4-oxadiazole-3-carboxamide] | ≤ 1
34 | COC1CCN(c2cc3c(-c4ccc(CNC(=O)c5nc(C(C)(C)C)no5)c(C)c4)ncnn3c2)CC1 [Example 97] | ≤ 1
35 | Cc1cc(-c2ncnn3cc(-c4cnsc4)cc23)ccc1CNC(=O)c1nc(C(C)(C)C)no1 [Example 173] | ≤ 1
36 | Cc1cc(-c2ncnn3cccc23)ccc1CNC(=O)c1nnc(C(C)(C)C)o1 [Example 185] | > 10
37 | Cc1cc(-c2ncnn3ccnc23)ccc1CNC(=O)c1noc(C(C)(C)C)n1 [Example 52] | 1 to 10
38 | CC=CC(=O)n1cc(-c2cc3c(-c4ccc(CNC(=O)c5noc(C(C)(C)C)n5)c(C)c4)ncnn3c2)cn1 [Example 147] | ≤ 1

Row | Structure (SMILES) | IC50 [nM]
39 | CC(C)(C)c1nc(C(=O)NCc2cc(F)c(-c3ncnn4cccc34)cc2Cl)no1 [Example 132] | 1 to 10
40 | CC(C)(C)n1cc(C(=O)NCc2ccc(-c3ncnn4cc(N5CCOCC5)cc34)cc2Cl)cn1 [Example 160] | ≤ 1
41 | Cc1c(CNC(=O)c2nc(C(C)(C)C)no2)ccc(-c2ccnc3cc(N4CCOCC4)nn23)c1F [Example 118] | 1 to 10
42 | Cc1cc(-c2ncnn3cc(-c4cnn(C)c4C)cc23)ccc1CNC(=O)c1noc(C(C)(C)C)n1 [Example 109] | ≤ 1
43 | Cc1cc(-c2ncnn3cc(-c4cnn(C5COC5)c4)cc23)ccc1CNC(=O)c1noc(C(C)(C)C)n1 [Example 104] | ≤ 1
44 | Cc1cc(-c2ncnn3cc(C4=CCOCC4)cc23)ccc1CNC(=O)c1nc(C(C)(C)C)no1 [Example 103] | ≤ 1
45 | COc1cc(-c2cc3c(-c4ccc(CNC(=O)c5noc(C(C)(C)C)n5)c(C)c4)ncnn3c2)ccn1 [Example 228] | ≤ 1
46 | COc1c(CNC(=O)c2noc(C(C)(C)C)n2)ccc(-c2ncnn3cc(N4CCOCC4)cc23)c1F [Example 223] | ≤ 1
47 | CC(C)(C)c1noc(C(=O)NCc2cc(F)c(-c3ncnn4cccc34)cc2Cl)n1 [Example 133] | 1 to 10
48 | Cc1c(CNC(=O)c2ccn(C(C)(C)C)n2)ccc(-c2ncnn3cc(N4CCOCC4)cc23)c1F [Example 89] | 1 to 10
49 | Cc1cc(-c2ncnn3cc(C4=CCOCC4)cc23)ccc1CNC(=O)c1cnc(C(C)(C)C)o1 (single isomer, unassigned) [Example 125] | ≤ 1
50 | Cc1cc(-c2ncnn3cc(N4CCN(C5COC5)C[C@@H]4C)cc23)ccc1CNC(=O)c1noc(C(C)(C)C)n1 [Example 75, (S)-5-(tert-butyl)-N-(2-methyl-4-(6-(2-methyl-4-(oxetan-3-yl)piperazin-1-yl)pyrrolo[2,1-f][1,2,4]triazin-4-yl)benzyl)-1,2,4-oxadiazole-3-carboxamide] | 1 to 10
51 | Cc1cc(-c2ncnn3cc(N4CCN(C)[C@H](C)C4)cc23)ccc1CNC(=O)c1noc(C(C)(C)C)n1 (single isomer, unassigned) [Example 117] | ≤ 1
52 | Cc1cc(-c2cc3c(-c4ccc(CNC(=O)c5noc(C(C)(C)C)n5)c(C)c4)ncnn3c2)ccn1 [Example 227] | ≤ 1
53 | Cc1cc(-c2ncnn3cc(N4CCO[C@H](C)C4)cc23)ccc1CNC(=O)c1nc(C(C)(C)C)no1 (single isomer, unassigned) [Example 137] | ≤ 1
54 | Cc1c(CNC(=O)c2nnc(C(C)(C)C)o2)ccc(-c2ncnn3cc(N4CCOCC4)cc23)c1F [Example 81] | 1 to 10
55 | CC(C)(C)c1nnc(C(=O)NCc2ccc(-c3ncnn4cc(N5CCOCC5)cc34)c(F)c2C2CC2)o1 [Example 163] | 1 to 10
56 | CO[C@H]1CCN(c2cc3c(-c4ccc(CNC(=O)c5nc(C(C)(C)C)no5)c(C)c4)ncnn3c2)C1 (single isomer, unassigned) [Example 23] | ≤ 1
